Test results published in publication PMC11606603, “The membrane domains of mammalian adenylyl cyclases are lipid receptors” (eLife, 2024).
pEC50, pIC50: −log10 of the molar value. Several values for one entry are separate records, joined by “and”; a condition that tells them apart may be missing. Equal entries are not always repeated. Where two headings read alike, the source gives them in different places.

Tests used:
[1] = target: T1, mAC9 (Homo sapiens, UniProt O60503); assay: AC assay, Gsα-stimulated mAC9 in membranes from transfected HEK293 cells; type: biochemical
T1 construct: Human mAC genes were from GenScript and fitted with a C-terminal FLAG-tag; FLAG (C); made in house; host or cells: HEK293, permanently transfected; membrane preparation
Method in brief: (§1)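 Human AC, FLAG-tagged, stably expressed in HEK293; membranes used as enzyme. 1 mM ATP, 2 mM MgCl2, ATP regeneration, MOPS pH 7.5; cAMP kit readout.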

[2] = target: T2, mAC7 (Homo sapiens, UniProt P51828); assay: AC assay, Gsα-stimulated mAC7 in membranes from transfected HEK293 cells; type: biochemical
T2 construct: Human mAC genes were from GenScript and fitted with a C-terminal FLAG-tag; FLAG (C); made in house; host or cells: HEK293, permanently transfected; membrane preparation
Method in brief: as §1

[3] = target: T3, mAC5(membr)–AC3(cat) (Homo sapiens, UniProt O60266+O95622); assay: AC assay, Gsα-stimulated chimera mAC5–3 in membranes from transfected HEK293 cells; type: biochemical; details: for Effect on Gsα-stimulated mAC5(membr)–AC3(cat) chimera: 300 nM Gsα, 20 µM oleic acid or 100 µM anandamide, in words
T3 construct: followed by AC5(1–402)_AC3(250–631)_AC5(761–1009)_AC3(862–1144); made in house; host or cells: HEK293, transfected; membrane preparation
Experimental: (§2) hAC sequences were from NCBI were: ADCY1: NM_021116.3; ADCY2: NM_020546.2; ADCY3: NM_004036.4; ADCY4: NM_001198568.2; ADCY5: NM_183357.2; ADCY6: NM_015270.4; ADCY7: NM_001114.4; ADCY8: NM_001115.2; ADCY9: NM_001116.3. Human mAC genes were from GenScript and fitted with a C-terminal FLAG-tag. […] The gene was synthesized by GenScript. HEK293 cells were maintained in Dulbeccos Modified Eagle Medium (DMEM) with 10% fetal bovine serum at 37°C and 5% CO2. Transfection with AC plasmids was with PolyJet (SignaGen, Frederick, MD, USA). Permanent cell lines were generated by selection for 7 days with 600 µg/ml G418 and maintained with 300 µg/ml For membrane preparation, cells were tyrpsinized, collected by centrifugation (3000 × g, 5 min) and lysed and homogenized in 20 mM HEPES, pH 7.5, 1 mM Ethylenediaminetetraacetic acid (EDTA), 2 mM MgCl2, 1 mM Dithiothreitol (DTT), one tablet of cOmplete, EDTA-free (per 50 ml) and 250 mM sucrose by 20 strokes in a potter homogenizer on ice. Debris was removed (5 min at 1000 × g, 0°C), membranes were collected at 100,000 × g, 60 min at 0°C, suspended and stored at −80°C in 20 mM MOPS, pH 7.5, 0.5 mM EDTA, 2 mM MgCl2. Membrane preparation from mouse brain cortex was according to [Seth et al., 2020]; [Schultz and Schmidt, 1987]. Three cerebral cortices were dissected and homogenized in 4.5 ml cold 48 mM Tris–HCl, pH 7.4, 12 mM MgC1_2, and 0.1 mM Ethylene glycol-bis(β-aminoethyl ether)-N,N,N′,N′-tetraacetic acid (EGTA) with a Polytron hand disperser (Kinematica AG, Switzerland). The homogenate was centrifuged for 15 min at 12,000 × g at 4°C. The pellet was washed once with 5 ml 1 mM KHCO3. The final suspension in 2 ml 1 mM KHCO3 was stored in aliquots at −80°C.
In a volume of 10 μl, AC activities were measured using 1 mM ATP, 2 mM MgCl2, 3 mM creatine phosphate, 60 μg/ml creatine kinase, and 50 mM MOPS pH 7.5. The cAMP assay kit from Cisbio (Codolet, France) was used for detection according to the supplier’s instructions. For each assay, a cAMP standard curve was established. EC50 and IC50 values were calculated by GraphPad Prism version 8.4.3 for Windows, GraphPad Software, San Diego, CA, USA, https://www.graphpad.com .

[4] = target: T4, HEK293 cells permanently transfected with mAC5 (Homo sapiens, UniProt O95622); assay: cAMP accumulation assay, isoproterenol-stimulated HEK-mAC5 cells; type: cell-based
T4 construct: Human mAC genes were from GenScript and fitted with a C-terminal FLAG-tag; FLAG (C); expressed in transfected cells; host or cells: HEK293, permanently transfected
Experimental: as §2
(§3) HEK293 cells stably expressing mAC isoforms 3, 5, and mAC5(membr)_mAC3(cat) were plated at 2500–10,000 cells/well into 384-well plates. […]. Addition of Cisbio HTRF detection reagents stopped the reaction and cAMP levels were determined.

[5] = target: T5, HEK293-mAC5(membr)–AC3(cat) cells (Homo sapiens, UniProt O60266+O95622); assay: cAMP accumulation assay, isoproterenol-stimulated HEK-mAC5–3 cells; type: cell-based
T5 construct: followed by AC5(1–402)_AC3(250–631)_AC5(761–1009)_AC3(862–1144); expressed in transfected cells; host or cells: HEK293, stably expressing the chimera
Experimental: as §2, §3

[6] = 20 µM fatty acid, 300 nM Gsα, single experiments

T1 sequence (O60503 whole entry): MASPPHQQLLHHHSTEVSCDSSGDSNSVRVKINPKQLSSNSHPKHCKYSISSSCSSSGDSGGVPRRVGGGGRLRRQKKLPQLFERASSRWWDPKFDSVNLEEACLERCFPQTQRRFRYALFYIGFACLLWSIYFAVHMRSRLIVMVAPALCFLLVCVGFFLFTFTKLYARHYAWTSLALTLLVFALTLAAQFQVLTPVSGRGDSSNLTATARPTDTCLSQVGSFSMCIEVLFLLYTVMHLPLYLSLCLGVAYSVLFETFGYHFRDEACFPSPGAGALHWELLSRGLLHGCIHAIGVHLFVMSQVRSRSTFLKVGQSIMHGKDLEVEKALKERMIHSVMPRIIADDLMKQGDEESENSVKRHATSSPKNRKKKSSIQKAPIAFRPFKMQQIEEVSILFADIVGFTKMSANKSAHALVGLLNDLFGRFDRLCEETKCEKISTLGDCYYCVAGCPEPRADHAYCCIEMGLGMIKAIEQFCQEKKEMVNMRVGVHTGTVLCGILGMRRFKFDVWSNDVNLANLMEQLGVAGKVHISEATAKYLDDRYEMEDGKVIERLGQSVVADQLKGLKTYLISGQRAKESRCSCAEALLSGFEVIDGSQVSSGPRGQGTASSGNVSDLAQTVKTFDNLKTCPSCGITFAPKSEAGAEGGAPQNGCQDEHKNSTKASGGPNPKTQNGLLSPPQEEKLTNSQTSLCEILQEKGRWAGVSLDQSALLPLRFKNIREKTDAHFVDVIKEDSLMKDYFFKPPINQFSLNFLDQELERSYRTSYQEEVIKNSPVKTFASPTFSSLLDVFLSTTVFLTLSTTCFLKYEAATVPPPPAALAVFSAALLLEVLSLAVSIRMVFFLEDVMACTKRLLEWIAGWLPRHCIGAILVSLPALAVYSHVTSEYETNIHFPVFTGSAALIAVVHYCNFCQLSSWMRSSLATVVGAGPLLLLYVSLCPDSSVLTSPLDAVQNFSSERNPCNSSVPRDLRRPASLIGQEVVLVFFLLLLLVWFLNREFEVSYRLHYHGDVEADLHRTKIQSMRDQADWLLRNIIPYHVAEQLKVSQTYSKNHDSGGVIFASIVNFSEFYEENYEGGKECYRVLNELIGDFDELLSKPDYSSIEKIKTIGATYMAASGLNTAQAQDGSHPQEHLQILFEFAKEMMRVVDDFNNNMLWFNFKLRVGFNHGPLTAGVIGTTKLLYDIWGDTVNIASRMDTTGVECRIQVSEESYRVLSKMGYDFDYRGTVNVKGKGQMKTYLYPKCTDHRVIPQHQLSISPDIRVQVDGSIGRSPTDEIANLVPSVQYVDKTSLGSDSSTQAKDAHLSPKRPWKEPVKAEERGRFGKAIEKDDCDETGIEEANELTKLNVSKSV
T1 sequence (P63092 2-394 Q227L partner): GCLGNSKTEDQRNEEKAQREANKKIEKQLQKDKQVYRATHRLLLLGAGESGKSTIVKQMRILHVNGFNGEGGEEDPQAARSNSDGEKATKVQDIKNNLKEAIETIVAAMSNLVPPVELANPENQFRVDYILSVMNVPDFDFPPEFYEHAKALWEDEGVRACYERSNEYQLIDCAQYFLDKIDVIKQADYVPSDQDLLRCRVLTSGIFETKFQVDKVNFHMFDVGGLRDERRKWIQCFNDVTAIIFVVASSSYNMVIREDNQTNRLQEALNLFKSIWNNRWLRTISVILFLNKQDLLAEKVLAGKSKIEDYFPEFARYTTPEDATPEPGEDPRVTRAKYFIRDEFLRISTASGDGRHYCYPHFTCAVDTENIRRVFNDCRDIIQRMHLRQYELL
T5 sequence (O95622 1-402): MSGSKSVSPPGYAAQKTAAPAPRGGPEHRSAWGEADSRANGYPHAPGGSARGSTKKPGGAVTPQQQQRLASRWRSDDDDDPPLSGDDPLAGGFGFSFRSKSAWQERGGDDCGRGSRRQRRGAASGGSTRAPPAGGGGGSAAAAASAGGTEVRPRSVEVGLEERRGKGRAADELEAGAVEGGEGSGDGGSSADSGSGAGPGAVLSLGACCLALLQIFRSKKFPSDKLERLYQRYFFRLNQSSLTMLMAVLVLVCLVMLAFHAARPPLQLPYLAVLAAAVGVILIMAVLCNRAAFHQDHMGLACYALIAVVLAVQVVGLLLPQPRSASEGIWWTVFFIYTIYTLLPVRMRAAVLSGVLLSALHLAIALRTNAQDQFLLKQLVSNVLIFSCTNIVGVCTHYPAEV
T5 sequence (O60266 250-631): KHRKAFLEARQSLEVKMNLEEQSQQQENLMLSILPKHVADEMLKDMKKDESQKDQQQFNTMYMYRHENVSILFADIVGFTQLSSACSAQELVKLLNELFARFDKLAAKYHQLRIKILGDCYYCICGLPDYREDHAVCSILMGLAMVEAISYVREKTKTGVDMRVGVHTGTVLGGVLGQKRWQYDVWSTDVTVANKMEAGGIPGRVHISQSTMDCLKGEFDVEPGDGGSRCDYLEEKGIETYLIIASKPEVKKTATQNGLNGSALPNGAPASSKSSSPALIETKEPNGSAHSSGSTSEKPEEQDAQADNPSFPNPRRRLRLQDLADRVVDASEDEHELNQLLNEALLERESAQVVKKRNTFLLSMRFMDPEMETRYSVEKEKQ
T5 sequence (O95622 761-1009): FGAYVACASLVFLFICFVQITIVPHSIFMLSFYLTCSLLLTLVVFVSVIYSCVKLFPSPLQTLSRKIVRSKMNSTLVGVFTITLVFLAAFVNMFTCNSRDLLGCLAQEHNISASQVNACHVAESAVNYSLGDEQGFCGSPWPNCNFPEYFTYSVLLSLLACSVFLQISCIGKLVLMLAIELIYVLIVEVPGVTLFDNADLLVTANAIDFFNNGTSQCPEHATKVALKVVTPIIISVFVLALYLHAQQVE
T5 sequence (O60266 862-1144): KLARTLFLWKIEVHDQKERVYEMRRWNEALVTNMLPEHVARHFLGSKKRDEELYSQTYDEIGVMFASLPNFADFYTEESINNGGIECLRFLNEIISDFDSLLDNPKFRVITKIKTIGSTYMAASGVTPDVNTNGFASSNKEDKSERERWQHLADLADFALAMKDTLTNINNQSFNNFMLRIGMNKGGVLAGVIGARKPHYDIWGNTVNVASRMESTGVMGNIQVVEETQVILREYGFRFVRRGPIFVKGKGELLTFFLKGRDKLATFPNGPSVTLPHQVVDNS
T3 sequence (O95622 1-402): as the sequence (O95622 1-402) above
T3 sequence (O60266 250-631): as the sequence (O60266 250-631) above
T3 sequence (O95622 761-1009): as the sequence (O95622 761-1009) above
T3 sequence (O60266 862-1144): as the sequence (O60266 862-1144) above
T2 sequence (P51828 whole entry): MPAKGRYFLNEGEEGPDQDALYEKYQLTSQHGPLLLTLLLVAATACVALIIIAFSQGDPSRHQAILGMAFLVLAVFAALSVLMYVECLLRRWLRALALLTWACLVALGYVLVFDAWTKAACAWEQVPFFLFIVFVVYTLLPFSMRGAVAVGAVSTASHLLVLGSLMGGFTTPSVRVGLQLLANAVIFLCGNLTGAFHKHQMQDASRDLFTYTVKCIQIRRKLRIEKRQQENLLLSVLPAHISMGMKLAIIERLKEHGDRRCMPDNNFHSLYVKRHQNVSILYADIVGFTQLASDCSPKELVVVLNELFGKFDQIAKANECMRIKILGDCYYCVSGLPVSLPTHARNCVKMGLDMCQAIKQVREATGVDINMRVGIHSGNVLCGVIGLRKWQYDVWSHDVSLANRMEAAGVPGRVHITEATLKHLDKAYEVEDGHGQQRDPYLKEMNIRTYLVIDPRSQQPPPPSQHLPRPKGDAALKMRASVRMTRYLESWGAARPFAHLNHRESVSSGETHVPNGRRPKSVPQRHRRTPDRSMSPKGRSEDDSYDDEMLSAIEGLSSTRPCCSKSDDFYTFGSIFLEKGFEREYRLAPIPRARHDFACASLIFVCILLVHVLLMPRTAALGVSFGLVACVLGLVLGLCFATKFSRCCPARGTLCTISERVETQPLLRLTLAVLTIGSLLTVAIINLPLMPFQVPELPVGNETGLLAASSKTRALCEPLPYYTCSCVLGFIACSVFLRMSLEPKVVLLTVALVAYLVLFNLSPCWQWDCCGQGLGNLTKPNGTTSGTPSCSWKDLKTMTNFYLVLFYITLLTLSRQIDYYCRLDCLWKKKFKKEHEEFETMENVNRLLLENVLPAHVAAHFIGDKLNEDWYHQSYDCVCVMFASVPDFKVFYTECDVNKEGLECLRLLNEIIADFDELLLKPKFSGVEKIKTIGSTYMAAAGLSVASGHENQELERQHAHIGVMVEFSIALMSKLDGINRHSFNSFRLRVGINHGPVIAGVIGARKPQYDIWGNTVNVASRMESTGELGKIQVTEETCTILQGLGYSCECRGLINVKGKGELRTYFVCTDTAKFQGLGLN
T2 sequence (P63092 2-394 Q227L partner): as the sequence (P63092 2-394 Q227L partner) above

## CCCCC/C=C\C/C=C\C/C=C\C/C=C\CCCC(=O)O [Arachidonic acid, Arachidonic ((5Z,8Z,11Z,14Z)-eicosatetraenoic) acid]
[1]
  pEC50: 5.12
[1]; 1 µM fatty acid, 300 nM Gsα, single experiments
  mAC9 activity (%);(100% = Gsα stimulation) stimulated by 300nM Gsα: 99% and 60% and 111% and 93%
[1]; [6]
  mAC9 activity (%);(100% = Gsα stimulation) stimulated by 300nM Gsα: 234% and 150% and 190% and 172% and 188% and 135%
  mAC9 activity [%] (100% = 300nM Gsα stimulation); 20µM fatty acid concentration: 172% and 188% and 135% and 234% and 150% and 190%

## CCCCCCCC/C=C\CCCCCCCC(=O)O [Oleic acid, Oleic ((9Z)-octadecenoic) acid]
[2]; 20 µM, in words
  Effect of lipid on 300 nM Gsα-stimulated mAC7: significantly enhanced
[2]; Figure 5 B, oleic acid 0.3 µM
  mAC7 activity [%] (100% = 300nM Gsα stimulation): 100%
[2]; enhancement of 300 nM Gsα-stimulated activity
  pEC50: 5.17
[1]; 20 µM, in words
  Effect of lipid on 300 nM Gsα-stimulated mAC9: significantly enhanced
[1]; Figure 5 B, oleic acid 0.3 µM
  mAC9 activity [%] (100% = 300nM Gsα stimulation): 100%
[1]; enhancement of 300 nM Gsα-stimulated activity, read-out: EC50 for mAC9
  pEC50: 5.11
[3]
  Effect on Gsα-stimulated mAC5(membr)–AC3(cat) chimera: not enhanced
[4]; 2.5 µM isoproterenol, in words
  Effect on isoproterenol-stimulated cAMP formation in HEK-mAC5: unaffected
[4]; HEK-mAC5, oleic acid 20 µM
  AC activity (%); 100%= 2.5µM Isoproterenol stimulation: 107% and 100% and 135%
[5]; in words, data not shown
  Effect on cAMP formation in HEK293-mAC5(membr)–AC3(cat) cells: ineffective

## CCCCC/C=C\C/C=C\C/C=C\C/C=C\CCCC(=O)NCCO [Anandamide, arachidonoylethanolamide]
[3]
  Effect on Gsα-stimulated mAC5(membr)–AC3(cat) chimera: attenuated
[3]; attenuation of 300 nM Gsα-stimulated activity
  pIC50: 4.54
[3]; mAC 5-3, 100µM Anandamide concentration, Figure 9 D
  activity [%] (100% = 300nM Gsα stimulation): 41% and 69% and 72% and 65% and 48% and 42%
[3]; mAC5-3, Anandamide 0.1 µM
  activity [%] (100% = 300nM Gsα stimulation): 100%
[3]; mAC5-3, Anandamide 1 µM
  activity [%] (100% = 300nM Gsα stimulation): 126% and 93% and 106% and 127% and 130% and 123%
[3]; mAC5-3, Anandamide 3 µM
  activity [%] (100% = 300nM Gsα stimulation): 121% and 102% and 118% and 146% and 144% and 129%
[3]; mAC5-3, Anandamide 10 µM
  activity [%] (100% = 300nM Gsα stimulation): 109% and 100% and 102% and 111% and 132% and 115%
[3]; mAC5-3, Anandamide 30 µM
  activity [%] (100% = 300nM Gsα stimulation): 77% and 70% and 88% and 68% and 74%
[3]; mAC5-3, Anandamide 100 µM
  activity [%] (100% = 300nM Gsα stimulation): 72% and 65% and 48% and 42% and 41% and 69%
[4]; 2.5 µM isoproterenol
  pIC50: 3.88
[4]; 100 µM anandamide, 2.5 µM isoproterenol
  attenuation of cAMP formation in HEK293-mAC5 cells: 23%
[4]; Anandamide 1 µM
  HEK-mAC activity (%); 100%= 2.5µM Isoproterenol stimulation, HEK-mAC5: 110% and 105% and 81% and 111% and 118% and 98% and 96% and 86%
[4]; Anandamide 3 µM
  HEK-mAC activity (%); 100%= 2.5µM Isoproterenol stimulation, HEK-mAC5: 110% and 102% and 93% and 132%
[4]; Anandamide 10 µM
  HEK-mAC activity (%); 100%= 2.5µM Isoproterenol stimulation, HEK-mAC5: 108% and 103% and 116% and 87% and 120% and 105% and 102%
[4]; Anandamide 30 µM
  HEK-mAC activity (%); 100%= 2.5µM Isoproterenol stimulation, HEK-mAC5: 98% and 88% and 95% and 102%
[4]; Anandamide 60 µM
  HEK-mAC activity (%); 100%= 2.5µM Isoproterenol stimulation, HEK-mAC5: 95% and 75% and 88% and 93% and 110%
[4]; Anandamide 100 µM
  HEK-mAC activity (%); 100%= 2.5µM Isoproterenol stimulation, HEK-mAC5: 79% and 86% and 94% and 77% and 62% and 71%
[4]; HEK293, read-out: HEK-mAC activity (%), 100%= 2.5µM Isoproterenol stimulation, HEK-mAC5, Anandamide 0.1 µM
  activity at 0.1 µM: 100%
[4]; HEK293, read-out: HEK-mAC activity (%), 100%= 2.5µM Isoproterenol stimulation, HEK-mAC5, Anandamide 30 µM
  activity at 30 µM: 100%
[4]; up to 100 µM, data not shown, in words
  Effect on basal activity of HEK-mAC5: no effect
[5]; 2.5 µM isoproterenol
  attenuation of cAMP formation in HEK293-mAC5(membr)–AC3(cat) cells: 66%
[5]; 2.5 µM isoproterenol, +0.5 mM IBMX
  pIC50: 4.22
[5]; read-out: HEK-mAC activity (%), 100%= 2.5µM Isoproterenol stimulation, HEK-mAC5-3, Anandamide 0.1 µM
  activity at 0.1 µM: 100%
[5]; read-out: HEK-mAC activity (%), 100%= 2.5µM Isoproterenol stimulation, HEK-mAC5-3, Anandamide 100 µM
  activity at 100 µM: 41%
